The assay concerns P388 leukemia ip, CD2F1 mice, survival T/C. Description: NCI In Vivo Anticancer Drug Screen. Data for tumor model P388 Leukemia (intraperitoneal) in CD2F1 (CDF1) mice. As to conditions: endpoint: median survival time, higher = longer survival. Summed up: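 Mice carrying the transplanted tumor received test compound or vehicle. Survival was recorded in each group, and the value is the treated-group measurement divided by that of the vehicle-treated control group.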

[1] abbreviates: dose: 100.0 mg/kg/injection, schedule: Q04DX003 (ip), vehicle: saline with Tween-80.
Setting [2] is: dose: 25.0 mg/kg/injection, schedule: Q01DX009 (ip), vehicle: saline with Tween-80.
Where [3] appears, read: dose: 50.0 mg/kg/injection, schedule: Q01DX009 (ip), vehicle: saline with Tween-80.
The mark [4] stands for this setting: dose: 60.0 mg/kg/injection, schedule: Q01DX005 (ip), vehicle: saline with Tween-80.
The mark [5] stands for this setting: dose: 120.0 mg/kg/injection, schedule: Q01DX005 (ip), vehicle: saline with Tween-80.
The mark [6] stands for this setting: dose: 240.0 mg/kg/injection, schedule: Q01DX005 (ip), vehicle: saline with Tween-80.

SMILES strings stand for the structures. Where “and” joins values, the source holds several entries; their conditions need not be identical. Equal values may be shown once. Inconclusive results and toxic doses are left out.

On to `COc1ccc(CCNc2cc3ncn(C)c(=O)c3cc2[N+](=O)[O-])cc1OC`, for which the T/C by setting is: (dose: 100.0 mg/kg/injection, schedule: Q04DX003 (ip), vehicle: Klucel (hydroxypropylcellulose) (HPC)) 101 % of control; (dose: 200.0 mg/kg/injection, schedule: Q04DX003 (ip), vehicle: Klucel (hydroxypropylcellulose) (HPC)) 100 % of control; (dose: 400.0 mg/kg/injection, schedule: Q04DX003 (ip), vehicle: Klucel (hydroxypropylcellulose) (HPC)) 86 % of control.

In the case of `Nc1ccc(O)c(=O)cc1`, the T/C reads like this: (dose: 50.0 mg/kg/injection, schedule: Q01DX005 (ip), vehicle: Klucel (hydroxypropylcellulose) (HPC)) 96 % of control; (dose: 100.0 mg/kg/injection, schedule: Q01DX005 (ip), vehicle: Klucel (hydroxypropylcellulose) (HPC)) 95 % of control; (dose: 200.0 mg/kg/injection, schedule: Q01DX005 (ip), vehicle: Klucel (hydroxypropylcellulose) (HPC)) 92 % of control.

For the compound `Clc1ccc(C=NCCN=Cc2ccc(Cl)c(Cl)c2)cc1Cl`, the T/C under setting [1] is 90 % of control; the T/C (dose: 200.0 mg/kg/injection, schedule: Q04DX003 (ip), vehicle: saline with Tween-80) is 95 % of control; the T/C (dose: 400.0 mg/kg/injection, schedule: Q04DX003 (ip), vehicle: saline with Tween-80) was 90 % of control.

Regarding `O=C(O)c1cccc(Cl)c1` (tested in a mixture with another compound), the T/C by setting is: (dose: 100.0 mg/kg/injection, schedule: Q01DX001 (ip), vehicle: saline with Tween-80) 94 % of control; (dose: 200.0 mg/kg/injection, schedule: Q01DX001 (ip), vehicle: saline with Tween-80) 99 % of control; (dose: 400.0 mg/kg/injection, schedule: Q01DX001 (ip), vehicle: saline with Tween-80) 95 % of control.

On to `CC1CN1c1cc(O)c(N2CC2C)cc1O` (configuration not stated), for which the T/C (dose: 0.29 mg/kg/injection, schedule: Q01DX009 (ip), vehicle: saline with Tween-80) was 100 % of control; the T/C (dose: 0.44 mg/kg/injection, schedule: Q01DX009 (ip), vehicle: saline with Tween-80) was 118 % of control; the T/C (dose: 0.63 mg/kg/injection, schedule: Q04DX003 (ip), vehicle: saline with Tween-80) was 109 % of control; the T/C (dose: 0.66 mg/kg/injection, schedule: Q01DX009 (ip), vehicle: saline with Tween-80) was 122 % of control; the T/C (dose: 2.5 mg/kg/injection, schedule: Q04DX003 (ip), vehicle: saline with Tween-80) was 150 % of control; the T/C (dose: 4.4 mg/kg/injection, schedule: Q04DX003 (ip), vehicle: saline with Tween-80) was 228 % of control. The T/C runs as follows: (dose: 5.0 mg/kg/injection, schedule: Q04DX003 (ip), vehicle: saline with Tween-80) 159 % of control; (dose: 6.6 mg/kg/injection, schedule: Q04DX003 (ip), vehicle: saline with Tween-80) 238 % of control.

As for `OC1COC(c2nn(-c3ccccc3)c3nc4ccc(Cl)cc4nc23)C1O` (configuration not stated), the T/C is 107 % of control (dose: 100.0 mg/kg/injection, schedule: Q04DX002 (ip), vehicle: saline with Tween-80); 97 % of control (dose: 200.0 mg/kg/injection, schedule: Q04DX002 (ip), vehicle: saline with Tween-80); 95 % of control (dose: 400.0 mg/kg/injection, schedule: Q04DX002 (ip), vehicle: saline with Tween-80).

In the case of `C/C(=N\NC1=NCCN1)c1cnn(C2=NCCN2)c1C`, the T/C is 116 % of control (dose: 60.0 mg/kg/injection, schedule: Q01DX005 (ip), vehicle: saline); 108 % of control (dose: 120.0 mg/kg/injection, schedule: Q01DX005 (ip), vehicle: saline); 118 % of control (dose: 240.0 mg/kg/injection, schedule: Q01DX005 (ip), vehicle: saline).

Regarding `CN1P(=N)(N)N=P(c2ccccc2)(c2ccccc2)N=P1(c1ccccc1)c1ccccc1` (configuration not stated), the T/C runs as follows: (dose: 12.5 mg/kg/injection, schedule: Q01DX009 (ip), vehicle: Klucel (hydroxypropylcellulose) (HPC)) 99 % of control and 113 % of control and 121 % of control; (dose: 25.0 mg/kg/injection, schedule: Q01DX009 (ip), vehicle: Klucel (hydroxypropylcellulose) (HPC)) 108 % of control and 115 % of control and 93 % of control; (dose: 50.0 mg/kg/injection, schedule: Q01DX009 (ip), vehicle: Klucel (hydroxypropylcellulose) (HPC)) 123 % of control and 88 % of control.

For the compound `CC(CCOc1ccc2ccc(=O)oc2c1)C1=CC(=O)C(C)(C)O1` (configuration not stated), the T/C was 103 % of control (dose: 12.5 mg/kg/injection, schedule: Q01DX009 (ip), vehicle: saline with Tween-80); 90 % of control under setting [2]; 116 % of control under setting [3]; 116 % of control (dose: 100.0 mg/kg/injection, schedule: Q01DX009 (ip), vehicle: saline with Tween-80).

`NC(=O)c1cc2c(oc1=O)-c1ccccc1OC2`: the T/C is, setting by setting: under setting [4], 98 % of control; under setting [5], 95 % of control; under setting [6], 95 % of control.

On to `Cc1cccc(C)c1N=CNc1c(C)cccc1C.[Cu+2]`, for which, under setting [2], the T/C is 101 % of control and 103 % of control and 118 % of control.

As for `CN1C(=O)C2CCC(=O)N2C(=S)N(C)C1=S` (configuration not stated), the T/C reads like this: under setting [4], 106 % of control; under setting [5], 104 % of control.

In the case of `COC(=O)Nc1nc2ccc(C(=O)c3ccccc3)cc2[nH]1`, the T/C by setting is: (dose: 2.0 mg/kg/injection, schedule: Q04DX003 (ip), vehicle: saline with Tween-80) 100 % of control; (dose: 4.0 mg/kg/injection, schedule: Q04DX003 (ip), vehicle: saline with Tween-80) 100 % of control; (dose: 8.0 mg/kg/injection, schedule: Q04DX003 (ip), vehicle: saline with Tween-80) 113 % of control; (dose: 16.0 mg/kg/injection, schedule: Q04DX003 (ip), vehicle: saline with Tween-80) 118 % of control; (dose: 32.0 mg/kg/injection, schedule: Q04DX003 (ip), vehicle: saline with Tween-80) 202 % of control; (dose: 64.0 mg/kg/injection, schedule: Q04DX003 (ip), vehicle: saline with Tween-80) 190 % of control. The T/C is, setting by setting: (dose: 80.0 mg/kg/injection, schedule: Q04DX003 (ip), vehicle: other) 192 % of control; (dose: 80.0 mg/kg/injection, schedule: Q04DX003 (oral), vehicle: other) 112 % of control and 113 % of control; (dose: 80.0 mg/kg/injection, schedule: Q04DX003 (oral), vehicle: saline) 98 % of control; (dose: 320.0 mg/kg/injection, schedule: Q04DX003 (oral), vehicle: saline) 115 % of control; (dose: 1280.0 mg/kg/injection, schedule: Q04DX003 (oral), vehicle: saline) 165 % of control.

For the compound `Nc1ccc2[nH]c(=O)cc(C(=O)O)c2c1`, the T/C was 92 % of control (dose: 50.0 mg/kg/injection, schedule: Q01DX005 (ip), vehicle: saline with Tween-80); 93 % of control (dose: 100.0 mg/kg/injection, schedule: Q01DX005 (ip), vehicle: saline with Tween-80); 92 % of control (dose: 200.0 mg/kg/injection, schedule: Q01DX005 (ip), vehicle: saline with Tween-80).

Regarding `CCC(c1ccc2cc(OC)ccc2c1)C(C)(C)C(=O)F` (configuration not stated), the T/C was 104 % of control (dose: 25.0 mg/kg/injection, schedule: Q04DX003 (ip), vehicle: saline with Tween-80); 104 % of control (dose: 33.0 mg/kg/injection, schedule: Q01DX009 (ip), vehicle: saline with Tween-80); 104 % of control under setting [3]; 104 % of control (dose: 50.0 mg/kg/injection, schedule: Q04DX003 (ip), vehicle: saline with Tween-80); 122 % of control (dose: 75.0 mg/kg/injection, schedule: Q01DX009 (ip), vehicle: saline with Tween-80); 87 % of control under setting [1].

On to `C=Cc1cc(OCC)c(OC)c2ccc3ccc(OC)c(OC)c3c12`, for which the T/C (dose: 100.0 mg/kg/injection, schedule: Q01DX001 (ip), vehicle: Klucel (hydroxypropylcellulose) (HPC)) is 95 % of control; the T/C (dose: 200.0 mg/kg/injection, schedule: Q01DX001 (ip), vehicle: Klucel (hydroxypropylcellulose) (HPC)) is 103 % of control; the T/C (dose: 400.0 mg/kg/injection, schedule: Q01DX001 (ip), vehicle: Klucel (hydroxypropylcellulose) (HPC)) is 92 % of control.

In the case of `Cc1nc(-c2nc(C(=O)NCCC[S+](C)C)cs2)cs1`, where the note is “dose: 50.0 mg/kg/injection, schedule: Q01DX005 (ip), vehicle: saline”, the T/C is 104 % of control.

On to `O=c1c2c(c(=O)c(=O)c1=O)Nc1ccccc1N2`, for which the T/C is, setting by setting: under setting [4], 100 % of control; under setting [5], 101 % of control; under setting [6], 107 % of control.

As to `O=C(CNC(=O)c1ccccc1)N/N=C/c1ccccc1O`, the T/C under setting [4] is 100 % of control, the T/C under setting [5] is 101 % of control and the T/C under setting [6] was 100 % of control.

With `Cc1ccc(C)c(NC(=O)C#N)c1`, the T/C under setting [4] is 93 % of control.

With `CNC(=O)OCc1c(COC(=O)NC)c(C)n(-c2ccc(Cl)cc2)c1C`, the T/C was 160 % of control (dose: 12.5 mg/kg/injection, schedule: Q01DX009 (ip), vehicle: saline) and 166 % of control (dose: 25.0 mg/kg/injection, schedule: Q01DX009 (ip), vehicle: saline).

For the origin of these results see PubChem BioAssay AID330 (DTP/NCI, 2004).
